Type in all cases: cell-based
In assay [1] the target is protein kinases (human kinome) (Homo sapiens, UniProt P07948). Particulars: for logFC: LYN (P07948-1).
The target of assay [2] is protein kinases (human kinome) (Homo sapiens, UniProt P51617). Conditions: IRAK1 (P51617).
The target of assay [3] is protein kinases (human kinome) (Homo sapiens, UniProt Q00536).
Assay [4] concerns the target protein kinases (human kinome) (Homo sapiens, UniProt Q5TCX8). Particulars: for logFC: MAP3K21 (Q5TCX8); for logFC MAP3K21 (Q5TCX8): direction of change down.
For assay [5], the target named is T1, protein kinases (human kinome) (Homo sapiens, UniProt Q96D53).
T1 sequence (Q96D53 1-544): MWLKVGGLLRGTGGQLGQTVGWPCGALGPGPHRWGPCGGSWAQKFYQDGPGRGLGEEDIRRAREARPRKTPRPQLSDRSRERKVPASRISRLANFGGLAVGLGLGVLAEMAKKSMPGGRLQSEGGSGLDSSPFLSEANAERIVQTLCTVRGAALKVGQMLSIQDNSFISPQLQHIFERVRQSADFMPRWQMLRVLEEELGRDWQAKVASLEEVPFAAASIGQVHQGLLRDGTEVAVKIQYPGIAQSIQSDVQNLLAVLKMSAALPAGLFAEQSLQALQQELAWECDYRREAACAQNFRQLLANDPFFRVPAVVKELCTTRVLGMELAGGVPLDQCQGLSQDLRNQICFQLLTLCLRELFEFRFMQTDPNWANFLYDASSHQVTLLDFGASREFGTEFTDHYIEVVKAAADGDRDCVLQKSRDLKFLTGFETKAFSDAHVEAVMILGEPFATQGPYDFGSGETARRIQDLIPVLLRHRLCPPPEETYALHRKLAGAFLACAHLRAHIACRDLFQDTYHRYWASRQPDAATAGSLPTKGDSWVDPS
Particulars: experiment wp137; for logFC: COQ8B (Q96D53-1).

Assay [6] addresses T2, protein kinases (human kinome) (Homo sapiens, UniProt Q9NWZ3).
T2 sequence (Q9NWZ3 1-460): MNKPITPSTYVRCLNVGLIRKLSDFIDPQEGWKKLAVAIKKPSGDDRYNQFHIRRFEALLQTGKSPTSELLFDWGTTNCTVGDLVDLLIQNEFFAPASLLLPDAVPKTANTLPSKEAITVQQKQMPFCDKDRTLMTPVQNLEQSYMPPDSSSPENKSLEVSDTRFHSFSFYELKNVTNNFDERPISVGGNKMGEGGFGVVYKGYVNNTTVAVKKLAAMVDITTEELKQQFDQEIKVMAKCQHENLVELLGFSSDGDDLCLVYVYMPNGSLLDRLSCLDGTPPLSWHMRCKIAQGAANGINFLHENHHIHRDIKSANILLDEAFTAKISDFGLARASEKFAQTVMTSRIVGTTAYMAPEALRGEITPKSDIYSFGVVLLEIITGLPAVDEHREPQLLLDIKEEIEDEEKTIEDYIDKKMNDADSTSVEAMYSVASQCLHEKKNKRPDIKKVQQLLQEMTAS
Conditions: for logFC: IRAK4 (Q9NWZ3-1).

Assay [7] concerns the target T3, protein kinases (human kinome) (Homo sapiens, UniProt O14757).
T3 sequence (O14757 1-476): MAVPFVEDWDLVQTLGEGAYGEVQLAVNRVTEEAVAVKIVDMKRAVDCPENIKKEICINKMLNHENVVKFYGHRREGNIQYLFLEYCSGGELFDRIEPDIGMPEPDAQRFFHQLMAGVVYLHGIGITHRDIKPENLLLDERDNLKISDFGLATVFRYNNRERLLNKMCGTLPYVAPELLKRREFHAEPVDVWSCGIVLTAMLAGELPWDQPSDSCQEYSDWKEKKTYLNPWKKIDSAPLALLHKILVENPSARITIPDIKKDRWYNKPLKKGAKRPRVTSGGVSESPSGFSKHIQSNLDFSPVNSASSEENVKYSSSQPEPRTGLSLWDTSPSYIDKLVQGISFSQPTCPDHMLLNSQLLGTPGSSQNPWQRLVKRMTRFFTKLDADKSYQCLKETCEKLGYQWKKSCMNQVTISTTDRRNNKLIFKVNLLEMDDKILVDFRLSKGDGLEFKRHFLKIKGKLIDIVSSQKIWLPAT
Conditions: for logFC: CHEK1 (O14757).

Assay [8] has as its target protein kinases (human kinome) (Homo sapiens, UniProt Q13882). Conditions: for logFC PTK6 (Q13882): Experiment wp114, direction of change down; for logFC: PTK6 (Q13882), experiment wp114.
The target in assay [9] is protein kinases (human kinome) (Homo sapiens, UniProt P31751). Conditions: AKT2 (P31751).
Sequence of protein kinases (human kinome) (Homo sapiens, UniProt P31751) (P31751 whole entry): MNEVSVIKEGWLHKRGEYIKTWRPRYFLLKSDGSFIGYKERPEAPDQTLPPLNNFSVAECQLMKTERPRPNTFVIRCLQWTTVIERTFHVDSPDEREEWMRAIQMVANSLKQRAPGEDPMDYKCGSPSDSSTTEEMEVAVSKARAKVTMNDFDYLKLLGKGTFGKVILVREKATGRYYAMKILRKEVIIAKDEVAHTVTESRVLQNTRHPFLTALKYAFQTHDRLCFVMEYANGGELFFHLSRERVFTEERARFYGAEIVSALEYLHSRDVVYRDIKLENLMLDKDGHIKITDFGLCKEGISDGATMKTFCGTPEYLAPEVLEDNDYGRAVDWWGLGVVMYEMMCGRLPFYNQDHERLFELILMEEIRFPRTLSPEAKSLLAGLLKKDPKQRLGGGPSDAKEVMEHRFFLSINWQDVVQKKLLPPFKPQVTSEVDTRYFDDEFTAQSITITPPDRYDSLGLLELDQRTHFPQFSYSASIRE
The target in assay [10] is protein kinases (human kinome) (Homo sapiens, UniProt Q8N165). Conditions: for logFC of PDIK1L (Q8N165): Experiment wp168; for logFC: PDIK1L (Q8N165), experiment wp168.
Sequence of protein kinases (human kinome) (Homo sapiens, UniProt Q8N165) (Q8N165 whole entry): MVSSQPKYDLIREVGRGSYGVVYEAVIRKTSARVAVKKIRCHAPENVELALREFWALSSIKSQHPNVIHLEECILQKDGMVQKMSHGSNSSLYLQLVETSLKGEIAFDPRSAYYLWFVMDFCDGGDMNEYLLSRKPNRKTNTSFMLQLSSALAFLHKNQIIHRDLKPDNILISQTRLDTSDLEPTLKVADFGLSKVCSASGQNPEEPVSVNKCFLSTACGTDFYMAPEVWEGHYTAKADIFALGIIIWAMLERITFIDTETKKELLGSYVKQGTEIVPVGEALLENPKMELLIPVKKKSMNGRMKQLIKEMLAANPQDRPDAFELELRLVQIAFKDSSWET
Setting [11] is: experiment wp105, direction down.
Where [12] appears, read: experiment wp107, direction down.

Where two headings read alike, the source gives them in different places.

Experimental findings from patent publication US20240269139A1, “COMPOUNDS FOR TARGETED PROTEIN DEGRADATION OF KINASES” (DANA-FARBER CANCER INSTITUTE, INC., priority 2020, published 2024) are described below.

Sequence of protein kinases (human kinome) (Homo sapiens, UniProt Q13882) (Q13882 whole entry): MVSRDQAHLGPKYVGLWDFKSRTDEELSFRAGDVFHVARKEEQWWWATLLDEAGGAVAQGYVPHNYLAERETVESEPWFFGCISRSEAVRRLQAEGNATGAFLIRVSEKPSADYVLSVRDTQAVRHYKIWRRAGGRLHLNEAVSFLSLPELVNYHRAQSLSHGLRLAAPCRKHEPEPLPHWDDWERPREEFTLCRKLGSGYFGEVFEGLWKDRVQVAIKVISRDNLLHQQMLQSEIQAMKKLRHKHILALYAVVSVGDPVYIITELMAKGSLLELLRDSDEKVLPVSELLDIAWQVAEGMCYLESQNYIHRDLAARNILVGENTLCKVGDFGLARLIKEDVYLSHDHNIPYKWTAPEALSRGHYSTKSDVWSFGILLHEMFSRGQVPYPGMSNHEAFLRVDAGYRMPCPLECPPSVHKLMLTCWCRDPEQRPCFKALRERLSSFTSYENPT
Sequence of protein kinases (human kinome) (Homo sapiens, UniProt P51617) (P51617 whole entry): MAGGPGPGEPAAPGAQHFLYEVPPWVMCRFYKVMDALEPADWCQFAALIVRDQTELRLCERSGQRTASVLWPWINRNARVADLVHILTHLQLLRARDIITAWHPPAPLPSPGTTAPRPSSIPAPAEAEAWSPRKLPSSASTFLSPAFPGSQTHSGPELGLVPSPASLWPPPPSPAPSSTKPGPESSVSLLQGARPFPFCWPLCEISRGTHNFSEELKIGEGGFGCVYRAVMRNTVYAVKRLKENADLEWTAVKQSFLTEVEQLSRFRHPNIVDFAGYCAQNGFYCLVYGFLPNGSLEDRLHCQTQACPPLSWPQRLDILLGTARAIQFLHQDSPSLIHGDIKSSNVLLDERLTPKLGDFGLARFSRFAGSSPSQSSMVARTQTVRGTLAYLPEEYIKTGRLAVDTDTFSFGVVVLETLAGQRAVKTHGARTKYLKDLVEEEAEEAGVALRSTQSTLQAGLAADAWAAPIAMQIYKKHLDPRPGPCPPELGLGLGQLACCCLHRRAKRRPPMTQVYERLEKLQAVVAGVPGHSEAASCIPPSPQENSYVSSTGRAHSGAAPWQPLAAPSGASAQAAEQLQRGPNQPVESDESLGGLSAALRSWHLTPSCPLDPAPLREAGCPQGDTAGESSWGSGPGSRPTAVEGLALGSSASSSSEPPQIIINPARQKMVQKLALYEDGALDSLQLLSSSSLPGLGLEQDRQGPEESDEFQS
Sequence of protein kinases (human kinome) (Homo sapiens, UniProt P07948) (P07948 whole entry): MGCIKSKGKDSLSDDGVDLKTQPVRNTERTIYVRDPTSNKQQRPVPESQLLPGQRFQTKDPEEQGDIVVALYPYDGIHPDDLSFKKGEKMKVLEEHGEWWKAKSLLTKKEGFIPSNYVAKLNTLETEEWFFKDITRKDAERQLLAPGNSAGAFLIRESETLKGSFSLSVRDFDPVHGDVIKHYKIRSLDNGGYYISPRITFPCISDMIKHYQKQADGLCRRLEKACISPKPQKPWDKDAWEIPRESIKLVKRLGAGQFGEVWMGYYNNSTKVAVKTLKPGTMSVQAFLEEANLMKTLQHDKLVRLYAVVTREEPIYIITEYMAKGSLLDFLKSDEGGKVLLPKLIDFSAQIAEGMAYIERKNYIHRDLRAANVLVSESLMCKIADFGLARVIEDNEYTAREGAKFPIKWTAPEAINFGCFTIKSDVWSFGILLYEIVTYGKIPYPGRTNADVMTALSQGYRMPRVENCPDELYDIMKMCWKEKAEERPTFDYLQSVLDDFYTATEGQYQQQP
Sequence of protein kinases (human kinome) (Homo sapiens, UniProt Q5TCX8) (Q5TCX8 whole entry): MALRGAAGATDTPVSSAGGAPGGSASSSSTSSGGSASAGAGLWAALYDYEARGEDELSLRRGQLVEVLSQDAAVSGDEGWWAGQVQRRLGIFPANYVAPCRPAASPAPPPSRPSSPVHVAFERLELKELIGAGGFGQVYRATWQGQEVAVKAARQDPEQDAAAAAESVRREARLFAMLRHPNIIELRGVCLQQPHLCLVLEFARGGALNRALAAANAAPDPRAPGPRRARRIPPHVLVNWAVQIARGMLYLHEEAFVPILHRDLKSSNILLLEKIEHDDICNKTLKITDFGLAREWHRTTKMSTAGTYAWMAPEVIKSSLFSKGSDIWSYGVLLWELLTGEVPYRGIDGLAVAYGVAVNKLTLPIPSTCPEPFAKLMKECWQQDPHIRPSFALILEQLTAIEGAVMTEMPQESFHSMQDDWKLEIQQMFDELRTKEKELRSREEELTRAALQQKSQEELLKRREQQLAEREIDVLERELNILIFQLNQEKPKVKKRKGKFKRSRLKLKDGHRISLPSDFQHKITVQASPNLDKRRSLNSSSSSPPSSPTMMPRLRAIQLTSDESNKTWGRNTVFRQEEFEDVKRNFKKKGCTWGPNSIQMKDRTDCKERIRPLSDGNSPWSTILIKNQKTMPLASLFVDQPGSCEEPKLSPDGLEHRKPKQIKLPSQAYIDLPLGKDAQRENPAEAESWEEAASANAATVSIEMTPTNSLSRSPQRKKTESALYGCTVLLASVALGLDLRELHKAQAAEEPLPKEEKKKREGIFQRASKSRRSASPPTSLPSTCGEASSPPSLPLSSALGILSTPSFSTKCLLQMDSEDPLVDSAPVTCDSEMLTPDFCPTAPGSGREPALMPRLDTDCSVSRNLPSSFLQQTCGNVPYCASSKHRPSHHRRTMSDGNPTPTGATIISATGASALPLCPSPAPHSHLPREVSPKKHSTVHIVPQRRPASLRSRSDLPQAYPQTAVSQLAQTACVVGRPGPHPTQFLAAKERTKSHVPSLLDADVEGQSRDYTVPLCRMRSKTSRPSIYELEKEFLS
Sequence of protein kinases (human kinome) (Homo sapiens, UniProt Q00536) (Q00536 whole entry): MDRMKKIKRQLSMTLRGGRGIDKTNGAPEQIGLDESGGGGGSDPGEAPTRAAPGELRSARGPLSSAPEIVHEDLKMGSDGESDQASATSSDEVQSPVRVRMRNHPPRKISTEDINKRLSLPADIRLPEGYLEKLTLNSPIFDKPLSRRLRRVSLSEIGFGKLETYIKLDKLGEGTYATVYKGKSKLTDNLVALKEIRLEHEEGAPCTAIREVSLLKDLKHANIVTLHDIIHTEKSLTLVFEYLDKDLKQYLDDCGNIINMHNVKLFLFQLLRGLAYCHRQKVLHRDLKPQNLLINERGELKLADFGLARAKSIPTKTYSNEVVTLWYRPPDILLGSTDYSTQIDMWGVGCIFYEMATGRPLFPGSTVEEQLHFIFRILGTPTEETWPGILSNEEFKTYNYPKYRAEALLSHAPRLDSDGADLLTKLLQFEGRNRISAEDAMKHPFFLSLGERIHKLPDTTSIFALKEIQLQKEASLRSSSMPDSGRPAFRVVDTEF

Regarding `Cc1ccc(NC(=O)c2cccc(C(F)(F)F)c2)cc1N1Cc2cnc(Nc3ccc(N4CCN(Cc5cn(CCCCCOc6cccc7c6C(=O)N(C6CCC(=O)NC6=O)C7=O)nn5)CC4)nc3)nc2N(C)C1=O` (stereo not shown) [DB0646, N-(3-(7-((6-(4-((1-(5-((2-(2,6-Dioxopiperidin-3-yl)-1,3-dioxoisoindolin-4-yl)oxy)pentyl)-1H-1,2,3-triazol-4-yl)methyl)piperazin-1-v)pyridin-3-yl)amino)-1-methyl-2-oxo-1,4-dihydropyrimido[4,5-d]pyrimidin-3(2H)-yl)-4-methylphenyl)-3-(trifluoromethyl)benzamide], the “logFC of LYN (P07948-1)” value in assay [1] (Experiment wp172) is on record as −0.7938. Further, the logFC in assay [1] (experiment wp172) is −0.7938.

In the case of `Cc1ccc(C(=O)Nc2ccc(CN3CCN(CCCOCCOCCOCCNC(=O)COc4cccc5c4C(=O)N(C4CCC(=O)NC4=O)C5=O)CC3)c(C(F)(F)F)c2)cc1C#Cc1cnc2cccnn12` (stereo not shown) [SB1.G.187], the logFC is given as −1.23 in [1] (experiment wp172); −1.578 in assay [2] (experiment wp056); −1.578 in assay [2] (experiment wp056, direction down); −1.504 in [2] (experiment wp103); −1.504 in assay [2] (experiment wp103, direction down); −1.404 in [2] (experiment wp105). The logFC in assay [2] (setting [11]) is listed as −1.404; in assay [2] (experiment wp107) it was −1.996; in assay [2] (setting [12]), −1.996; in assay [2] (experiment wp172), −1.572; in assay [2] (experiment wp172, direction down) it was −1.572. The “logFC LYN (P07948-1)” value in [1] (experiment wp172, direction of change down) was −1.23.

With `Cc1cnc(Nc2ccc(N3CCN(CCCCCCC(=O)N[C@H](C(=O)N4C[C@H](O)C[C@H]4C(=O)N[C@@H](C)c4ccc(-c5scnc5C)cc4)C(C)(C)C)CC3)cc2)nc1Nc1cccc(S(=O)(=O)NC(C)(C)C)c1` [JWG.123], in [3] (Experiment wp195), the “logFC CDK16 (Q00536-1)” value is listed as −0.5026 and the “logFC of CDK16 (Q00536-1)” value is given as −0.5026.

As for `CC(C)S(=O)(=O)c1ccccc1Nc1nc(Nc2ccc(N3CCN(CCOCCOCCNC(=O)CNc4cccc5c4C(=O)N(C4CCC(=O)NC4=O)C5=O)CC3)cc2)ncc1Cl` (stereo not shown) [TL12.186], in assay [4] (experiment wp131), the logFC was −0.969 and the “logFC MAP3K21 (Q5TCX8)” value is −0.969. For the same compound, in assay [5], the logFC is −0.4934 and the “logFC of COQ8B (Q96D53-1)” value is recorded as −0.4934. In addition, in assay [6] (experiment wp131), the logFC is listed as −0.4293 and the “logFC of IRAK4 (Q9NWZ3-1)” value is reported as −0.4293. In assay [6] (experiment wp137), the logFC is reported as −0.4185 and the “logFC of IRAK4 (Q9NWZ3-1)” value is given as −0.4185.

In the case of `O=C1CCC(N2C(=O)c3cccc(NCCCCCCCCN4CCC(NC(=O)c5[nH]ncc5NC(=O)c5c(Cl)cccc5Cl)CC4)c3C2=O)C(=O)N1` (stereo not shown) [MFH.5.126.1], in assay [7] (experiment wp076), the logFC is listed as −0.3606 and the “logFC of CHEK1 (O14757)” value is on record as −0.3606.

As for `Cc1ncsc1-c1ccc([C@H](C)NC(=O)[C@@H]2C[C@@H](O)CN2C(=O)[C@@H](NC(=O)CCOCCOCCN2CCN(c3ccc(Nc4ncc(Cl)c(Nc5ccccc5S(=O)(=O)C(C)C)n4)cc3)CC2)C(C)(C)C)cc1` [FMF.06.098.1], the logFC in assay [7] (experiment wp108) is on record as −0.3674; in assay [7] (experiment wp114) it was −0.4124; in assay [8], −0.4401; in assay [6] (experiment wp108), −0.6505; in assay [6] (experiment wp131) it was −0.7086. In addition, the “logFC of CHEK1 (O14757)” value in [7] (Experiment wp108) is reported as −0.3674; in assay [7] (Experiment wp114), −0.4124. Moreover, in assay [8], the “logFC PTK6 (Q13882)” value was −0.4401. In addition, the “logFC of IRAK4 (Q9NWZ3-1)” value in assay [6] (Experiment wp108) was −0.6505; in assay [6] (experiment wp131), −0.7086.

Consider `C[C@@H]1C[C@@H](O)c2ncnc(N3CCN(C(=O)[C@H](CNCCCCCCCCCCc4cccc5c4C(=O)N(C4CCC(=O)NC4=O)C5=O)c4ccc(Cl)cc4)CC3)c21` (stereo partly shown) [INY.03.041.01], for which the logFC is on record as −2.777 in [9] (experiment wp118); −2.777 in [9] (experiment wp118, direction down); −1.739 in assay [9] (experiment wp135, 4 hr); −1.739 in assay [9] (experiment wp135, 4 hr, direction down).

With `CC(C)(C)c1nc(-c2cccc(NS(=O)(=O)c3c(F)cccc3F)c2F)c(-c2ccnc(NCCOCCNC(=O)CCOCCOCCNc3cccc4c3C(=O)N(C3CCC(=O)NC3=O)C4=O)n2)s1` (stereo not shown) [DD.03.106], in assay [5], the logFC is listed as −0.3442 and the “logFC of COQ8B (Q96D53-1)” value was −0.3442.

Regarding `Cc1ccc(NC(=O)c2cccc(C(F)(F)F)c2)cc1N1Cc2cnc(Nc3ccc(N4CCN(CCCCC(=O)N[C@H](C(=O)N5C[C@H](O)C[C@H]5C(=O)N[C@@H](C)c5ccc(-c6scnc6C)cc5)C(C)(C)C)CC4)nc3)nc2N(C)C1=O` [DB1113], in assay [10], the “logFC of PDIK1L (Q8N165)” value is given as −0.5334 and the logFC is −0.5334.

Take `CC(C)S(=O)(=O)c1ccccc1Nc1nc(Nc2ccc(N3CCN(CCOCCNC(=O)CNc4cccc5c4C(=O)N(C4CCC(=O)NC4=O)C5=O)CC3)cc2)ncc1Cl` (stereo not shown) [SK.3.91]: the logFC in assay [9] (experiment wp105) is reported as −0.8722; in assay [9] (setting [11]), −0.8722; in [9] (experiment wp107), −0.4141; in assay [9] (setting [12]), −0.4141; in assay [8] it was −0.4171; in [4] (experiment wp133, 4 hr), −0.4685. For the same compound, the “logFC CDK16 (Q00536-1)” value in assay [3] (Experiment wp172) is given as −0.8169. In [3] (Experiment wp172), the “logFC of CDK16 (Q00536-1)” value is −0.8169. In assay [8], the “logFC PTK6 (Q13882)” value is listed as −0.4171. Besides, the “logFC MAP3K21 (Q5TCX8)” value in [4] (experiment wp133, 4 hr) is −0.4685.

With `Cc1ccc(NC(=O)c2cccc(C(F)(F)F)c2)cc1N1Cc2cnc(Nc3ccc(N4CCN(CCCOc5cccc6c5C(=O)N(C5CCC(=O)NC5=O)C6=O)CC4)nc3)nc2N(C)C1=O` (stereo not shown) [DB0662], in [10], the “logFC of PDIK1L (Q8N165)” value is −0.3272 and the logFC is recorded as −0.3272.

For the compound `Cc1ccc(C(=O)Nc2ccc(CN3CCN(CCOCCOCCNC(=O)CNc4cccc5c4C(=O)N(C4CCC(=O)NC4=O)C5=O)CC3)c(C(F)(F)F)c2)cc1C#Cc1cnc2cccnn12` (stereo not shown) [TL13.150], the logFC in assay [2] (experiment wp081) is listed as −2.834; in [2] (experiment wp081, direction down), −2.834.
